The results in this text go back to US8258115B2, “Stable salts of S-adenosylmethionine and process for the preparation thereof” (priority 2007, dated 2012).

Type in all cases: physicochemical
The nature of data set [1]: Stability test in thermostated heaters at 25° C. and 60% R.H., active ingredient %. The settings on record: heat-sealed aluminium/aluminium bags. The protocol:
(§1) In the following Tables 2-13, the percentage values are repotted which were obtained in the stability tests carried out on the products of examples 1-6. The stability tests were carried out in thermostated heaters at 40° C. and 75% R.H (tables 2-7) as well as 25° C. and 60% R.H. (tables 8-13), preserving the samples in heat-sealed aluminium/aluminium bags according to the following criteria: the active ingredient % was determined for every sampling point taken under consideration.

A short description of data set [2]: Moisture % K.F. of the stability samples. The settings on record: sample used in the stability test. The protocol: In the following Tables 2-13, the percentage values are repotted which were obtained in the stability tests carried out on the products of examples 1-6. The stability tests were carried out in thermostated heaters at 40° C. and 75% R.H (tables 2-7) as well as 25° C. and 60% R.H. (tables 8-13), preserving the samples in heat-sealed aluminium/aluminium bags according to the following criteria: […]

A short description of data set [3]: Degradation of the active stereoisomer S,S at 40° C. and 75% R.H. The protocol: (§2) In the following Tables 14-25, the percentage values are reported of the degradation of the active stereoisomer S,S calculated at 40° C. and 75% R.H. (Tables 14-19) and at 25° C. and 65% R.H.
Data set [4] can be described thus: Degradation of the active stereoisomer S,S at 25° C. and 65% R.H. The protocol: as §2
The nature of data set [5]: Stability test in thermostated heaters at 40° C. and 75% R.H., active ingredient %. The settings on record: heat-sealed aluminium/aluminium bags. The protocol: as §1

For `C[S+](CCC(N)C(=O)[O-])C[C@H]1O[C@@H](n2cnc3c(N)ncnc32)[C@H](O)[C@@H]1O.C[S+](CCC(N)C(=O)[O-])C[C@H]1O[C@@H](n2cnc3c(N)ncnc32)[C@H](O)[C@@H]1O.Cl.O=S(=O)([O-])[O-].[Mg+2]` (stereo partly shown) [SAMe•0.5HCl•0.5MgSO4], the “stability test percentage value (active ingredient %), 30 days” value in data set [1] was 0.31%; in data set [5] it was 0.48%. The “stability test percentage value (active ingredient %), 90 days” value is 0.46% in data set [1] and 1.54% in data set [5]. Besides, the results for the “stability test percentage value (active ingredient %), 180 days” value in data set [1] and in data set [5] were 0.77% and 2.78%, respectively. Moreover, the “stability test percentage value (active ingredient %), 360 days” value in data set [1] stood at 0.94%. In addition, the “stability test percentage value (active ingredient %), 720 days” value in data set [1] was 1.19%. Also, the “Moisture % K.F.” value in data set [2] was 0.82%. The “percentage of active S,S stereoisomer remaining” value in data set [3] (30 days) is on record as 92.8%; in data set [3] (60 days), 87.8%; in data set [3] (90 days) it was 84.6%; in data set [3] (120 days), 89.6%; in data set [3] (180 days), 72.6%; in data set [3] (T = 0), 98.9%. Besides, the “percentage of the active S,S stereoisomer remaining” value in data set [4] (30 days) was found to be 97.8%; in data set [4] (90 days) it was 95.8%; in data set [4] (180 days) it was 94.3%; in data set [4] (360 days), 91.6%; in data set [4] (720 days), 88.2%; in data set [4] (T = 0) it was 98.9%. In addition, the “stability test percentage value (active ingredient %), 60 days” value in data set [5] turned out to be 0.78%. In data set [5], the “stability test percentage value (active ingredient %), 120 days” value came to 1.98%.
Regarding `C[S+](CCC(N)C(=O)[O-])C[C@H]1O[C@@H](n2cnc3c(N)ncnc32)[C@H](O)[C@@H]1O.O=S(=O)(O)O.O=S(=O)(O)O.[Ca+2].[Cl-].[Cl-]` (stereo partly shown) [SAMe•2.0H2SO4•1.0CaCl2], the “stability test percentage value (active ingredient %), 30 days” value in data set [1] is given as 0.16%; in data set [5] it was 0.17%. Also, the “stability test percentage value (active ingredient %), 90 days” value in data set [1] amounted to 0.29%; in data set [5] it was 0.92%. Besides, the “stability test percentage value (active ingredient %), 180 days” value is 0.35% in data set [1] and 2.70% in data set [5]. For the same compound, in data set [1], the “stability test percentage value (active ingredient %), 360 days” value amounted to 0.68%. For the same compound, the “stability test percentage value (active ingredient %), 720 days” value in data set [1] was 0.82%. In addition, the “Moisture % K.F.” value in data set [2] was found to be 0.35%. Further, the “percentage of active S,S stereoisomer remaining” value in data set [3] (30 days) is 89.3%; in data set [3] (60 days), 85.3%; in data set [3] (90 days), 83.3%; in data set [3] (120 days), 79.3%; in data set [3] (180 days) it was 75.3%; in data set [3] (T = 0), 97.2%. The “percentage of the active S,S stereoisomer remaining” value in data set [4] (30 days) stood at 95.9%; in data set [4] (90 days) it was 94.9%; in data set [4] (180 days) it was 93.8%; in data set [4] (360 days) it was 91.2%; in data set [4] (720 days), 87.8%; in data set [4] (T = 0), 97.2%. Moreover, in data set [5], the “stability test percentage value (active ingredient %), 60 days” value is on record as 0.42%. The “stability test percentage value (active ingredient %), 120 days” value in data set [5] was found to be 1.52%.
With `C[S+](CCC(N)C(=O)[O-])C[C@H]1O[C@@H](n2cnc3c(N)ncnc32)[C@H](O)[C@@H]1O.O=S(=O)(O)O.O=S(=O)(O)O.O=S(=O)([O-])[O-].[Mg+2]` (stereo partly shown) [SAMe•2.0H2SO4•1.0Mg2SO4•0.4H2O], the “stability test percentage value (active ingredient %), 30 days” value in data set [1] is listed as 0.14%; in data set [5], 0.33%. The “stability test percentage value (active ingredient %), 90 days” value in data set [1] came to 0.28%; in data set [5], 0.61%. Moreover, the “stability test percentage value (active ingredient %), 180 days” value in data set [1] is recorded as 0.45%; in data set [5], 1.59%. Further, the “stability test percentage value (active ingredient %), 360 days” value in data set [1] is 0.69%. The “stability test percentage value (active ingredient %), 720 days” value in data set [1] amounted to 0.92%. The “Moisture % K.F.” value in data set [2] came to 0.34%. Besides, the “percentage of active S,S stereoisomer remaining” value in data set [3] (30 days) was determined as 91.3%; in data set [3] (60 days) it was 89.4%; in data set [3] (90 days), 84.1%; in data set [3] (120 days), 81.3%; in data set [3] (180 days) it was 75.8%; in data set [3] (T = 0) it was 97.5%. Besides, the “percentage of the active S,S stereoisomer remaining” value was 97.3% in data set [4] (30 days); 96.4% in data set [4] (90 days); 94.1% in data set [4] (180 days); 91.3% in data set [4] (360 days); 89.8% in data set [4] (720 days); 97.5% in data set [4] (T = 0). Further, the “stability test percentage value (active ingredient %), 60 days” value in data set [5] turned out to be 0.44%. For the same compound, in data set [5], the “stability test percentage value (active ingredient %), 120 days” value is 1.02%.
As for `C[S+](CCC(N)C(=O)[O-])C[C@H]1O[C@@H](n2cnc3c(N)ncnc32)[C@H](O)[C@@H]1O.O=S(=O)(O)O.O=S(=O)(O)O.[Cl-].[Cl-].[Mg+2]` (stereo partly shown) [SAMe•2.0H2SO4•1.0MgCl2], the “stability test percentage value (active ingredient %), 30 days” value in data set [1] is listed as 0.10%; in data set [5], 0.19%. Also, the figures for the “stability test percentage value (active ingredient %), 90 days” value in data set [1] and in data set [5] were 0.18% and 0.82%, respectively. Further, the results for the “stability test percentage value (active ingredient %), 180 days” value in data set [1] and in data set [5] were 0.25% and 1.87%, respectively. In data set [1], the “stability test percentage value (active ingredient %), 360 days” value is 0.49%. In data set [1], the “stability test percentage value (active ingredient %), 720 days” value worked out at 0.62%. Further, in data set [2], the “Moisture % K.F.” value turned out to be 0.52%. For the same compound, the “percentage of active S,S stereoisomer remaining” value is 89.3% in data set [3] (30 days); 85.3% in data set [3] (60 days); 83.3% in data set [3] (90 days); 89.3% in data set [3] (120 days); 75.3% in data set [3] (180 days); 97.2% in data set [3] (T = 0). For the same compound, the “percentage of the active S,S stereoisomer remaining” value is 96.3% in data set [4] (30 days); 95.3% in data set [4] (90 days); 93.3% in data set [4] (180 days); 91.0% in data set [4] (360 days); 88.0% in data set [4] (720 days); 97.2% in data set [4] (T = 0). Further, the “stability test percentage value (active ingredient %), 60 days” value in data set [5] stood at 0.34%. The “stability test percentage value (active ingredient %), 120 days” value in data set [5] was found to be 1.12%.
In the case of `C[S+](CCC(N)C(=O)[O-])C[C@H]1O[C@@H](n2cnc3c(N)ncnc32)[C@H](O)[C@@H]1O.Cl.Cl.[Cl-].[Cl-].[Mg+2]` (stereo partly shown) [SAMe•2.0HCl•1.0MgCl2], the “stability test percentage value (active ingredient %), 30 days” value in data set [1] is on record as 0.17%; in data set [5], 0.27%. Also, the “stability test percentage value (active ingredient %), 90 days” value in data set [1] amounted to 0.37%; in data set [5] it was 1.14%. For the same compound, the “stability test percentage value (active ingredient %), 180 days” value in data set [1] was determined as 0.58%; in data set [5] it was 1.89%. Further, the “stability test percentage value (active ingredient %), 360 days” value in data set [1] turned out to be 0.74%. Moreover, the “stability test percentage value (active ingredient %), 720 days” value in data set [1] is listed as 0.98%. Further, the “Moisture % K.F.” value in data set [2] came to 0.44%. The “percentage of active S,S stereoisomer remaining” value is given as 92.9% in data set [3] (30 days); 87.8% in data set [3] (60 days); 83.4% in data set [3] (90 days); 82.1% in data set [3] (120 days); 78.2% in data set [3] (180 days); 97.4% in data set [3] (T = 0). For the same compound, the “percentage of the active S,S stereoisomer remaining” value in data set [4] (30 days) was determined as 96.6%; in data set [4] (90 days) it was 95.7%; in data set [4] (180 days), 94.7%; in data set [4] (360 days) it was 92.5%; in data set [4] (720 days), 88.0%; in data set [4] (T = 0), 97.4%. In addition, the “stability test percentage value (active ingredient %), 60 days” value in data set [5] is reported as 0.45%. The “stability test percentage value (active ingredient %), 120 days” value in data set [5] is given as 1.45%.
